From patent publication US4105768A, “Hypotensive substituted 1,2,4-triazoles” (priority 1973, dated 1978) come the findings set out here.

Where two headings read alike, the source gives them in different places.

One data set has as its system anaesthetized rats. It is filed as in vivo, rat.
The next data set deals with renal hypertensive rats. Nature of the data set: Antihypertensive effect (mean arterial blood pressure) in unanaesthetized renal hypertensive rats, oral. In kind it is in vivo, rat. The settings on record: for Minimum daily oral dose with antihypertensive effects defined as the dose which reduced the mean arterial blood pressure more than 15 mm Hg in unanaesthetized renal hypertensive rats: three consecutive daily oral doses, measured before and three hours after administration. The procedure: The antihypertensive effects were tested in rats in which high blood pressure had been produced by removal of one kidney and restricting the blood flow to the remaining one two months before the experiments. The animals were prepared for measurements of the arterial blood pressure through a catheter implanted into the abdonimal aorta and exteriorized at the base of the neck. Groups of two rats were given three consecutive daily oral doses of the test compounds from the scale: 2.5, 5, 10, 20, and 40 mg/kg. Measurements were performed before and three hours after administration to the unanaesthetized animal. The minimum daily oral dose with antihypertensive effect was defined as the dose which reduced the mean arterial blood pressure more than 15 mm Hg.

In a further data set the test system is mice. Nature of the data set: Effect on the spontaneous motor activity of mice. It is filed as in vivo, mouse. The note with it: i.p., mice; compared to Wy-8678. The procedure: (§1) The effect on the spontaneous motor activity was tested in mice. Groups of six animals were given the test compounds intraperitoneally one and three hours before test. The animals were placed individually in an activity meter and the activity was recorded for ten minutes. The dose which reduced the spontaneous motor activity to 50 percent of that of control mice was calculated.

Data set [1] can be described thus: Effect on the spontaneous motor activity of mice. It is filed as in vivo, mouse. The settings on record: mouse, in vivo, ip, read-out: Intraperitoneal dose which reduced the spontaneous motor activity of mice to 50 % of control values; for ED50 at 1 h: measurements one hour after administration; for ED50 at 3 h: measurements three hours after administration. The method, then:
as §1

A short description of data set [2]: Acute toxicity in mice (LD50 i.p.). The note with it: mouse, in vivo, ip.
The subject of data set [3] is spontaneously hypertensive rats of the SHR/N strain. Nature of the data set: Antihypertensive effect in spontaneously hypertensive rats, oral. In kind it is in vivo. The settings on record: Rattus norvegicus, 3 h; three consecutive daily oral doses; measured before and three hours after administration; unanesthetized SHR/N rats; read-out: effective antihypertensive dose, defined as the dose which reduced the mean arterial blood pressure more than 30 mm Hg. The procedure: The antihypertensive effects of the hydrochloride salt of the compound of the invention with the designation FLA 486 having the formula [drawing 25] have been compared with those of FLA 136 with the formula [drawing 26] in spontaneously hypertensive rats of the SHR/N strain (Mollegaard Hansens Avlslaboratorier A/S, Denmark). The animals were prepared for measurements of the arterial blood pressure through a catheter implanted into the abdominal aorta and exteriorized at the base of the neck. Groups of two rats were given three consecutive daily oral doses of the test compounds. Measurements were performed before and three hours after administration to the unanesthetized animal. The effective antihypertensive dose of FLA 486, defined as the dose which reduced the mean arterial blood pressure more than 30 mm Hg was 5-10 mg/kg. The corresponding value for FLA 136 was 5-10 mg/kg.

For orientation: LD50 means the dose expected to kill half of the subjects tested. Low values mean greater toxicity, high ones lower toxicity. `Cl.Nn1cnnc1NN=Cc1c(Cl)cccc1Cl` [FLA 136, 4-Amino-3-(2,6-dichlorobenzylidenehydrazino)-1,2,4-triazole hydrochloride]: the “initial rise in blood pressure” value in the data set with anaesthetized rats (rat, in vivo, iv, 40 mg/kg) was “did not produce an initial rise in blood pressure even at 40 mg/kg”. Moreover, in the data set with renal hypertensive rats (oral, compared with Wy-8678), the “antihypertensive effect (in words)” value was “of the same degree as that of one of the present known most active hypotensive compounds”. In addition, the “Minimum daily oral dose with antihypertensive effects defined as the dose which reduced the mean arterial blood pressure more than 15 mm Hg in unanaesthetized renal hypertensive rats” value with renal hypertensive rats lay in the range of 2.5 to 5 mg/kg. Besides, the “sedative effects (in words)” value in the data set with mice is given as “lack of sedative effects”. For the same molecule, in data set [1], the ED50 at 1 h was found to be 90 mg/kg and the ED50 at 3 h turned out to be 170 mg/kg. The same molecule yielded a 50% lethal dose (LD50) in data set [2] of 340 mg/kg. In data set [3], the minimal effective dose is 5 to 10 mg/kg.
Regarding `CNn1cnnc1NN=Cc1c(Cl)cccc1Cl` [FLA 486], the minimal effective dose in data set [3] was in the range of 5 to 10 mg/kg.
Take `NC(N)=NN=Cc1c(Cl)cccc1Cl` [Wy-8678, reference compound]: the “initial rise in blood pressure” value in the data set on anaesthetized rats (intravenous, consecutive increasing doses, anaesthetized rats, highest dose tested of test compound 40 mg/kg) was “produced a large increase in arterial pressure even at doses as low as 0.01 mg/kg”. In addition, the “Minimum daily oral dose with antihypertensive effects defined as the dose which reduced the mean arterial blood pressure more than 15 mm Hg in unanaesthetized renal hypertensive rats” value with renal hypertensive rats was 2.5 mg/kg. Moreover, in data set [1], the ED50 at 1 h was found to be 3 mg/kg and the ED50 at 3 h was 3 mg/kg. For the same molecule, the LD50 in data set [2] turned out to be 70 mg/kg.
